In US7928238B2, “1,2,3,4-tetrahydro-quinoline derivatives as CETP inhibitors” (Janssen Pharmaceutica NV, priority 2006, dated 2011):
“And” between values parts separate entries of the source, which are not always exact repeats. Identical values can stand only once.

Target: T1, CETP (Homo sapiens, UniProt P11597)
T1 construct: from tissue; host or cells: human plasma from normal volunteers
T1 sequence (P11597 18-493): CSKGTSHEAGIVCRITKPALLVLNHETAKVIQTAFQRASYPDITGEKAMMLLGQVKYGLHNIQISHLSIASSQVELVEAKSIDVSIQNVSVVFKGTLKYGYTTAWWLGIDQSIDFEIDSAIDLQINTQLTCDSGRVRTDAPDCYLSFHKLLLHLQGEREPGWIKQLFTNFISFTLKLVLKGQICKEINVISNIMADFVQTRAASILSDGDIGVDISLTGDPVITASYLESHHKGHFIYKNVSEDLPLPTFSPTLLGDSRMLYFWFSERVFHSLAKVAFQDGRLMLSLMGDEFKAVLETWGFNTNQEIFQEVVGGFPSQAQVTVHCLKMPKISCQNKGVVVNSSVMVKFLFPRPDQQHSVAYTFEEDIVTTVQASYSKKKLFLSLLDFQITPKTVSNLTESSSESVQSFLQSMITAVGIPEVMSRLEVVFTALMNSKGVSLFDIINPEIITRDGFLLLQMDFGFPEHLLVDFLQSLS
Experiment: CETP in vitro assay (Amersham kit TRKQ7005; modified protocol in human plasma, [3H]CE-HDL transfer)
Type: biochemical
Settings: for % Inhibition @ 1 μM / inhibition at 1 µM: 1 μM compound; for IC50: from plots of % control versus compound concentration; for inhibition at 1 µM: read-out: % Inhibition @ 1 μM
Procedure: The CETP inhibitory activity of the compounds was determined using a commercially available kit from Amersham Biosciences (Catalog #TRKQ7005).
Briefly, 80 μl of human plasma (obtained from normal volunteers), approximately 25 μg/ml (20 μl) of [^3H]CE-HDL (Amersham Biosciences from kit TRKQ7005) and 1 μl of compound dissolved in DMSO was incubated for at least 4 hrs at 37° C. and non-specific transfer was determined by incubating a corresponding plate at 4° C. (blank). After the incubation period, 10 μl of a solution of 1% Dextralip 50/0.5M MgCl2, pH 7.4 was added, vortexed and incubated at room temperature for 10 min. The plate was then centrifuged for 30 min at 10° C. at 300 rpm in a Sorvall RT6000B centrifuge. Fifty microliters of the supernatant was transferred to a Picoplate (Packard) containing 100 μl of Microscint 40 (Perkin Elmer) and mixed for 30 min using a plate mixer. The radioactivity was counted using a TopCount (Perkin Elmer) and the % control was determined in the samples using the following formula: % transfer relative to vehicle controls (% control)=[cpm blank−cpm test]/cpm blank/cpm control]×100. IC50s were calculated from plots of the % control versus compound concentration.

Row | Compound | % Inhibition @ 1 μM | IC50 | inhibition at 1 µM
1 | OC(CN1c2cccc(-c3cccc(OC(F)(F)F)c3)c2CCC1c1cccc(OC(F)(F)F)c1)C(F)(F)F (stereo not drawn) [Compound 32, 3-[2,5-Bis-(3-trifluoromethoxy-phenyl)-3,4-dihydro-2H-quinolin-1-yl]-1,1,1-trifluoro-propan-2-ol] | 34% |  | 
2 | OC(CN1c2cccc(-c3cccc(OC(F)(F)F)c3)c2CCC1c1cccs1)C(F)(F)F (stereo not drawn) [Compound 33, 1,1,1-Trifluoro-3-[2-thiophen-2-yl-5-(3-trifluoromethoxy-phenyl)-3,4-dihydro-2H-quinolin-1-yl]-propan-2-ol] | 28% |  | 
3 | N#Cc1cccc(C2CCc3c(-c4cccc(OC(F)(F)F)c4)cccc3N2CC(O)C(F)(F)F)c1 (stereo not drawn) [Compound 28, 3-[1-(3,3,3-Trifluoro-2-hydroxy-propyl)-5-(3-trifluoromethoxy-phenyl)-1,2,3,4-tetrahydro-quinolin-2-yl]-benzonitrile] | 25% |  | 
4 | CCC1CCc2c(-c3cccc(OC(F)(F)F)c3)cccc2N1CC(O)C(F)(F)F (stereo not drawn) [Compound 36, 3-[2-Ethyl-5-(3-trifluoromethoxy-phenyl)-3,4-dihydro-2H-quinolin-1-yl]-1,1,1-trifluoro-propan-2-ol] | 11% and 13% |  | 
5 | OC(CN1c2cccc(-c3cccc(OC(F)(F)F)c3)c2CCC1c1cccc(Cl)c1)C(F)(F)F (stereo not drawn) [Compound 29, 3-[2-(3-Chloro-phenyl)-5-(3-trifluoromethoxy-phenyl)-3,4-dihydro-2H-quinolin-1-yl]-1,1,1-trifluoro-propan-2-ol] | 39% | 290 nM | 
6 | OC(CN1c2cccc(-c3cccc(OC(F)(F)F)c3)c2CCC1c1ccccc1)C(F)(F)F (stereo not drawn) [Compound 19, 1,1,1-Trifluoro-3-[2-phenyl-5-(3-trifluoromethoxy-phenyl)-3,4-dihydro-2H-quinolin-1-yl]-propan-2-ol] | 21% |  | 
7 | OC(CN1c2cccc(-c3cccc(OC(F)(F)F)c3)c2CCC1c1ccc(OC(F)(F)C(F)F)cc1)C(F)(F)F (stereo not drawn) [Compound 21, 1,1,1-Trifluoro-3-[2-[4-(1,1,2,2-tetrafluoro-ethoxy)-phenyl]-5-(3-trifluoromethoxy-phenyl)-3,4-dihydro-2H-quinolin-1-yl]-propan-2-ol] | 5% |  | 
8 | N#Cc1cccc(C2CCc3c(-c4cccc(OC(F)(F)F)c4)cccc3N2CC(O)C(F)(F)F)c1 (stereo not drawn) [Compound 27, 3-[1-(3,3,3-Trifluoro-2-hydroxy-propyl)-5-(3-trifluoromethoxy-phenyl)-1,2,3,4-tetrahydro-quinolin-2-yl]-benzonitrile] | 48% and 38% | 410 nM | 
9 | OC(CN1c2cccc(-c3cccc(OC(F)(F)F)c3)c2CCC1c1cccc(OC(F)(F)C(F)F)c1)C(F)(F)F (single isomer, unassigned) [Compound 1, 1,1,1-Trifluoro-3-[2-[3-(1,1,2,2-tetrafluoro-ethoxy)-phenyl]-5-(3-trifluoromethoxy-phenyl)-3,4-dihydro-2H-quinolin-1-yl]-propan-2-ol] |  | 7 nM and 25 nM and 30 nM | 100%
10 | OC(CN1c2cccc(-c3ccc(OC(F)(F)F)cc3)c2CCC1c1cccc(OC(F)(F)C(F)F)c1)C(F)(F)F (stereo not drawn) [Compound 8, 1,1,1-Trifluoro-3-[2-[3-(1,1,2,2-tetrafluoro-ethoxy)-phenyl]-5-(4-trifluoromethoxy-phenyl)-3,4-dihydro-2H-quinolin-1-yl]-propan-2-ol] | 29% and 36% |  | 
11 | OC(CN1c2cccc(-c3cccc(OC(F)(F)F)c3)c2CCC1c1ccccc1)C(F)(F)F (stereo not drawn) [Compound 20, 1,1,1-Trifluoro-3-[2-phenyl-5-(3-trifluoromethoxy-phenyl)-3,4-dihydro-2H-quinolin-1-yl]-propan-2-ol] | 6% |  | 
12 | OC(CN1c2cccc(-c3cccc(F)c3)c2CCC1c1cccc(OC(F)(F)C(F)F)c1)C(F)(F)F (stereo not drawn) [Compound 11, 1,1,1-Trifluoro-3-{5-(3-fluoro-phenyl)-2-[3-(1,1,2,2-tetrafluoro-ethoxy)-phenyl]-3,4-dihydro-2H-quinolin-1-yl}-propan-2-ol] | 101% and 99% and 79% | 70 nM and 95 nM and 187 nM | 

Now from value to compound:

Row | % Inhibition @ 1 μM | IC50 | inhibition at 1 µM | Compound
13 | 62% | 600 nM |  | CCc1cc(Oc2cccc3c2CCC(c2cccc(OC(F)(F)C(F)F)c2)N3CC(O)C(F)(F)F)ccc1Cl (stereo not drawn) [Compound 84, 3-{5-(4-Chloro-3-ethyl-phenoxy)-2-[3-(1,1,2,2-tetrafluro-ethoxy)-phenyl]-3,4-dihydro-2H-quinolin-1-yl}-1,1,1-trifluoro-propan-2-ol]
14 |  |  | 17% | CCC1CCc2c(-c3cccc(OC(F)(F)F)c3)cccc2N1Cc1cccc(OC(F)(F)F)c1 (stereo not drawn) [Compound 39, 2-Ethyl-1-(3-trifluoromethoxy-benzyl)-5-(3-trifluoromethoxy-phenyl)-1,2,3,4-tetrahydro-quinoline]
15 | 63% and 77% | 331 nM |  | OC(CF)CN1c2cccc(-c3cccc(OC(F)(F)F)c3)c2CCC1c1cccc(OC(F)(F)F)c1 (stereo not drawn) [Compound 49, 1-[2,5-Bis-(3-trifluoromethoxy-phenyl)-3,4-dihydro-2H-quinolin-1-yl]-3-fluoro-propan-2-ol]
16 | 74% and 84% | 326 nM |  | CC(C)C(O)CN1c2cccc(-c3cccc(OC(F)(F)F)c3)c2CCC1c1cccc(OC(F)(F)F)c1 (stereo not drawn) [Compound 45, 1-[2,5-Bis-(3-trifluoromethoxy-phenyl)-3,4-dihydro-2H-quinolin-1-yl]-3-methyl-butan-2-ol]
17 | 18% |  |  | CC(C)Oc1cccc(-c2cccc3c2CCC(c2cccc(OC(F)(F)C(F)F)c2)N3CC(O)C(F)(F)F)c1 (stereo not drawn) [Compound 69, 1,1,1-Trifluoro-3-{5-(3-isopropoxy-phenyl)-2-[3-(1,1,2,2-tetrafluoro-ethoxy)-phenyl]-3,4-dihydro-2H-quinolin-1-yl}-propan-2-ol]
18 | 34% | 110 nM | 39% | C[C@@H](O)CN1c2cccc(-c3cccc(F)c3)c2CC[C@@H]1c1cccc(OC(F)(F)F)c1 [Compound 55]
19 | 36% | 30 nM | 46% | O[C@H](CN1c2cccc(-c3cccc(OC(F)(F)F)c3)c2CC[C@H]1c1cccc(OC(F)(F)C(F)F)c1)C(F)(F)F [Compound 81, (2S, αR)-3,4-Dihydro-2-[3-(1,1,2,2-tetrafluoroethoxy)phenyl]-5-[3-(trifluoromethoxy)phenyl]-α-(trifluoromethyl)-1(2H)-quinolineethanol]
20 | 97% and 106% | 231 nM |  | Oc1cccc(-c2cccc3c2CCC(c2cccc(OC(F)(F)C(F)F)c2)N3CC(O)C(F)(F)F)c1 (stereo not drawn) [Compound 42, 3-[2-[3-(1,1,2,2-Tetrafluoro-ethoxy)-phenyl]-1-(3,3,3-trifluoro-2-hydroxy-propyl)-1,2,3,4-tetrahydro-quinolin-5-yl]-phenol]
21 |  |  | 30% | COc1cccc(-c2cccc3c2CC[C@H](c2cccc(OC(F)(F)F)c2)N3C[C@H](O)C(F)(F)F)c1 [Compound 59]
22 |  |  | 67% | OC(CN1c2cccc(Oc3cccc(Cl)c3Cl)c2CCC1c1cccc(OC(F)(F)C(F)F)c1)C(F)(F)F (stereo not drawn) [Compound 86, 3-{5-(2,3-Dichloro-phenoxy)-2-[3-(1,1,2,2-tetrafluoro-ethoxy)-phenyl]-3,4-dihydro-2H-quinolin-1-yl}-1,1,1-trifluoro-propan-2-ol]
23 |  |  | 0% | C[C@@H](O)CN1c2cccc(-c3cccc(F)c3)c2CC[C@H]1c1cccc(OC(F)(F)F)c1 [Compound 56]
24 | 92% and 97% and 91% | 59 nM and 253 nM |  | OC(CN1c2cccc(-c3cccc(F)c3)c2CCC1c1cccc(OC(F)(F)F)c1)C(F)(F)F (stereo not drawn) [Compound 57, 1,1,1-Trifluoro-3-[5-(3-fluoro-phenyl)-2-(3-trifluoromethoxy-phenyl)-3,4-dihydro-2H-quinolin-1-yl]-propan-2-ol]
25 | 68% and 44% | 744 nM |  | OC(CCl)CN1c2cccc(-c3cccc(OC(F)(F)F)c3)c2CCC1c1cccc(OC(F)(F)F)c1 (stereo not drawn) [Compound 47, 1-[2,5-Bis-(3-trifluoromethoxy-phenyl)-3,4-dihydro-2H-quinolin-1-yl]-3-chloro-propan-2-ol]
26 |  |  | 13% | COC[C@@H](O)CN1c2cccc(-c3cccc(OC(F)(F)F)c3)c2CC[C@@H]1c1cccc(OC(F)(F)F)c1 [Compound 51]
27 | 61% and 70% and 78% | 300 nM |  | OC(CN1c2cccc(-c3ccsc3)c2CCC1c1cccc(OC(F)(F)C(F)F)c1)C(F)(F)F (stereo not drawn) [Compound 64, 1,1,1-Trifluoro-3-{2-[3-(1,1,2,2-tetrafluoro-ethoxy)-phenyl]-5-thiophen-3-yl-3,4-dihydro-2H-quinolin-1-yl}-propan-2-ol]
